Experimental findings from the supplement of paper PMC4862054 are described below.

SMILES strings stand for the structures.

In test [1] the test system is MDA-MB-453. The following applies: 72 h. The method, boiled down:
(§1)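 The reported EC50 was fitted from percent-inhibition dose-response curves and censored at the highest concentration. Breast cancer cell lines (20 µl suspension) were added to 384-well plates containing compound in 5 µl medium and incubated 72 h, and viability was read with 2.5 µl CellTiter-Blue over 2 h at 37 °C at 560/590 nm. Each plate was normalised to vehicle and a positive kill control and checked by Z'-factor, and rows with zero drug sensitivity score were dropped.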

Test [2] has as its system BT-549. The note with it: 72 h. In outline:
as §1

Test [3] has as its system BT-474. The following applies: 72 h. The method, boiled down:
as §1

Test [4] deals with Hs578T. The following applies: 72 h. In outline:
as §1

Test [5] has as its system MDA-MB-468. The note with it: 72 h. The method, boiled down: as §1
In test [6] the test system is HCC1937. The note with it: 72 h. The method, boiled down: as §1
Test [7] concerns MDA-MB-231. The following applies: 72 h. In outline: as §1
Test [8] relates to MFM-223. The following applies: 72 h. The method, boiled down:
as §1

The test system of test [9] is CAL-120. The following applies: 72 h. In outline: as §1
Test [10] concerns MDA-MB-436. The note with it: 72 h. The method, boiled down: as §1
The subject of test [11] is MDA-MB-231. The note with it: 72 h. As for the experimental part:
(§2)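 Drug sensitivity and resistance testing (DSRT) of breast cancer cell lines in 384-well plates, 5 concentrations in 10-fold dilutions over a compound-specific 10,000-fold range. After 72 h, cytotoxicity was read by CellTox Green fluorescence and viability by CellTiter-Glo luminescence (multiplexed), normalised to DMSO and benzethonium chloride controls. EC50 is the inflection point of the fitted dose-response curve (bottom asymptote free, so it can be relative for partial curves) and is censored at the highest tested concentration. Rows with DSS 0 (no meaningful response) were excluded.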
The source holds these as a separate data set.

Test [12] deals with CAL-51. The following applies: 72 h. As for the experimental part: as §2
Test [13] relates to CAL-85-1. The following applies: 72 h. In outline:
as §1

In test [14] the test system is HDQ-P1. The note with it: 72 h. The method, boiled down: as §1
Test [15] concerns SK-BR-3. The following applies: 72 h. In outline: as §1
The test system of test [16] is HCC1937. Briefly: normalised response (% of control), CellTiter-Glo; higher = more viable cells (100 = DMSO, 0 = benzethonium chloride kill control). The following applies: incubation time: 72 h. In outline: (§3)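 Each value is the plate-normalised signal at one concentration of the series. Breast cancer cell lines (20 µl suspension) were incubated 72 h in 384-well plates with compound at 5 concentrations in 10-fold steps over a compound-specific 10,000-fold range. CellTox Green and then CellTiter-Glo were read, and each plate was scaled to 0.1 % DMSO (100) and a positive kill control (0).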

Test [17] has as its system BT-549. The test is described as above. The following applies: incubation time: 72 h. In outline:
as §3

Test [18] concerns MDA-MB-231. The description is as above. The following applies: incubation time: 72 h. The method, boiled down: as §3
Another test has as its system HCC1143. The description is as above. The note with it: incubation time: 72 h. In outline:
as §3

The subject of test [19] is MDA-MB-436. Described as above. The following applies: incubation time: 72 h. In outline: as §3
In a further test the test system is CAL-148. The test is described as above. The following applies: incubation time: 72 h. In outline:
as §3

For test [20], the system named is MDA-MB-453. The test is described as above. The note with it: incubation time: 72 h. The method, boiled down:
as §3

Test [21] relates to BT-474. Described as above. The note with it: incubation time: 72 h. In outline:
as §3

For a further test, the system named is DU-4475. The test is described as above. The following applies: incubation time: 72 h. The method, boiled down:
as §3

The test system of test [22] is MFM-223. Described as above. The following applies: incubation time: 72 h. In outline: as §3
In the next test the test system is MCF-10A. Described as above. The following applies: incubation time: 72 h. In outline: as §3
Test [23] deals with CAL-51. Described as above. The following applies: incubation time: 72 h. The method, boiled down:
as §3

Test [24] relates to SK-BR-3. The description is as above. The following applies: incubation time: 72 h. The method, boiled down: as §3
The test system of test [25] is CAL-120. The description is as above. The following applies: incubation time: 72 h. In outline:
as §3

Test [26] has as its system CAL-85-1. Described as above. The following applies: incubation time: 72 h. In outline: as §3
Test [27] relates to Hs578T. Described as above. The note with it: incubation time: 72 h. In outline: as §3
The subject of another test is HCC1599. The test is described as above. The note with it: incubation time: 72 h. In outline: as §3
Test [28] deals with MDA-MB-468. The test is described as above. The note with it: incubation time: 72 h. In outline: as §3
The test system of test [29] is HDQ-P1. The description is as above. The note with it: incubation time: 72 h. The method, boiled down:
as §3

Consider `O=C(Nc1cccnc1)N1CCC(Cc2cccc(Oc3ccc(C(F)(F)F)cn3)c2)CC1` [PF-3845], for which the “EC50, CellTiter-Blue viability” value in the test with MDA-MB-453 [1] is 2640 nM; with BT-549 [2], 1550 nM; with BT-474 [3], 8600 nM; in the test with Hs578T [4], 2570 nM; in the test on MDA-MB-468 [5] it was over 10000 nM.

Take `COCC1(CO)C(=O)C2CCN1CC2` (stereo unspecified) [Prima-1 Met]: the “EC50, CellTiter-Blue viability” value in the test on HCC1937 [6] was 476 nM; in the test with BT-474 [3], 4530 nM; in the test on Hs578T [4] it was over 10000 nM.

As for `CNC(=O)c1cc(Oc2ccc(NC(=O)Nc3ccc(Cl)c(C(F)(F)F)c3)c(F)c2)ccn1` [Regorafenib], the “EC50, CellTiter-Blue viability” value in the test with MDA-MB-453 [1] worked out at 2740 nM; in the test with HCC1937 [6], 5960 nM; in the test on BT-549 [2], 7210 nM; with MDA-MB-231 [7], 2370 nM; in the test with BT-474 [3] it was 8340 nM; in the test with MFM-223 [8] it was 706 nM. Further, the “EC50, CellTiter-Blue viability” value amounted to 9380 nM with CAL-120 [9], 6690 nM in the test on Hs578T [4] and 7800 nM in the test on MDA-MB-468 [5].

On to `c1ccc2c(CCNc3ccc(Nc4ccncc4)cc3)c[nH]c2c1` [Serdemetan], for which the “EC50, CellTiter-Blue viability” value with MDA-MB-453 [1] was found to be 2980 nM; in the test with BT-549 [2], 1560 nM; in the test with MDA-MB-436 [10], 540 nM; in the test on Hs578T [4] it was 1540 nM. Moreover, the results for the “EC50, CellTox Green” value with MDA-MB-231 [11] and in the test with CAL-51 [12] were 8800 nM and 285 nM, respectively.

Regarding `S=P(N1CC1)(N1CC1)N1CC1` [Thio-TEPA], the “EC50, CellTiter-Blue viability” value in the test on MDA-MB-231 [7] worked out at 12000 nM.

For `CN(C)CCOc1ccc(/C(=C(/CCCl)c2ccccc2)c2ccccc2)cc1` [Toremifene], the “EC50, CellTiter-Blue viability” value with MDA-MB-453 [1] was 7240 nM; with MDA-MB-436 [10], 2200 nM; with MDA-MB-468 [5], 5600 nM.

`CC(C)C[C@@H](C(=O)N[C@H](C(=O)OC1CCCC1)c1ccccc1)[C@H](O)C(=O)NO` [Tosedostat]: the “EC50, CellTiter-Blue viability” value in the test on MDA-MB-453 [1] worked out at 86.3 nM; with CAL-85-1 [13] it was 2940 nM; in the test on HDQ-P1 [14], 268 nM; in the test on HCC1937 [6], 121 nM; in the test on BT-549 [2], 273 nM; with MDA-MB-231 [7], 92.4 nM. The “EC50, CellTiter-Blue viability” value with MDA-MB-436 [10] is 2740 nM; with MFM-223 [8] it was 2230 nM; in the test on CAL-120 [9], 16.7 nM; in the test on Hs578T [4] it was 2140 nM; with MDA-MB-468 [5], 35.9 nM. Besides, the results for the “EC50, CellTox Green” value in the test on MDA-MB-231 [11] and in the test on CAL-51 [12] were 52.9 nM and 35.5 nM, respectively.

On to `COc1cc2c(NC3CCN(C(C)C)CC3)nc(N3CCC(F)(F)CC3)nc2cc1OCCCN1CCCC1` [UNC0642], for which the “EC50, CellTox Green” value in the test with MDA-MB-231 [11] was determined as 2090 nM.

Regarding `COc1cc2/c(=N/c3ccc(Br)cc3F)nc[nH]c2cc1OCC1CCN(C)CC1` [Vandetanib], the “EC50, CellTiter-Blue viability” value with MDA-MB-453 [1] was found to be 4640 nM; with CAL-85-1 [13] it was 2590 nM; in the test with HDQ-P1 [14] it was 191 nM; with BT-549 [2], 3750 nM; in the test on MDA-MB-231 [7], 2480 nM; with MDA-MB-436 [10] it was 138 nM. Besides, the “EC50, CellTiter-Blue viability” value turned out to be 2290 nM with BT-474 [3]; 926 nM in the test with MFM-223 [8]; 4330 nM in the test on SK-BR-3 [15]; 5260 nM with CAL-120 [9]; 2060 nM with Hs578T [4]; 3330 nM in the test with MDA-MB-468 [5].

For the compound `COc1cc2/c(=N/c3ccc(Br)cc3F)nc[nH]c2cc1OCC1CCN(C)CC1` [Vandetanib] (1000 nM), the normalised response in the test with HCC1937 [16] turned out to be 78%; in the test with BT-549 [17], 95%; with MDA-MB-231 [18] it was 79.1%; in the test on HCC1143, 86.4%; in the test on MDA-MB-436 [19], 86%; in the test with CAL-148 it was 78.9%. Moreover, the normalised response amounted to 74.5% in the test with MDA-MB-453 [20]; 79.3% in the test with BT-474 [21]; 87.8% with DU-4475; 64.9% with MFM-223 [22]; 27.1% in the test on MCF-10A; 99.1% in the test on CAL-51 [23]. In addition, the normalised response turned out to be 74.3% with SK-BR-3 [24]; 89.6% in the test with CAL-120 [25]; 58.9% with CAL-85-1 [26]; 91.7% in the test with Hs578T [27]; 76.2% in the test on HCC1599; 69.9% with MDA-MB-468 [28]. The normalised response in the test on HDQ-P1 [29] is 56.3%.

With `COCC[n+]1c2c(n(Cc3cnccn3)c1C)C(=O)c1ccccc1C2=O` [YM155] (10000 nM), the normalised response was 0.28% in the test with HCC1937 [16]; -0.36% with BT-549 [17]; -0.19% in the test on MDA-MB-231 [18]; -0.39% in the test on HCC1143; -0.62% in the test with MDA-MB-436 [19]; -0.38% in the test on CAL-148. The normalised response is -0.58% with MDA-MB-453 [20]; 1.71% in the test with BT-474 [21]; -0.36% in the test with DU-4475; 5.6% with MFM-223 [22]; -0.72% with MCF-10A; -0.12% in the test with CAL-51 [23]. The normalised response was -0.43% with SK-BR-3 [24]; -0.38% in the test with CAL-120 [25]; -0.28% with CAL-85-1 [26]; -0.62% with Hs578T [27]; -0.77% in the test with HCC1599; -0.19% with MDA-MB-468 [28]. Also, the normalised response in the test on HDQ-P1 [29] was 1.64%.
